Measurements as given in US20150057305A1, “PHARMACEUTICAL COMPOSITION” (SHANGHAI HOTMED SCIENCES CO., LTD., priority 2012, published 2015).

Key:
[1] = cited from earlier work
Solubility in water = format: physicochemical
[2] = Distribution coefficient (n-octanol-water) shake flask method GB/T 21853-2008; format: physicochemical; conditions: in water
[3] = dog, in vivo; cited from earlier work

solubility in water (Solubility in water) | Lg Po/w [2] | Compound | stability in human plasma [1] | oral bioavailability [3]
almost insoluble in water | 7.31 | CC[C@@]1(OC(=O)OCC(C)C)C(=O)OCc2c1cc1n(c2=O)Cc2cc3c([N+](=O)[O-])cccc3nc2-1 [the compound of formula I] | good stability | –
– | – | CC[C@@]1(O)C(=O)OCc2c1cc1n(c2=O)Cc2cc3c([N+](=O)[O-])cccc3nc2-1 [Example 9-NC, 9-nitro-camptothecin] | – | less than 6%
